Organism: Rattus norvegicus
Test: DrugMatrix - Regimen: Daily Repeat
Format: toxicity, organism-based, Sprague-Dawley
Design: regimen Daily Repeat, gender Male, age 6-8 weeks
Details: in vivo, po, route oral GAVAGE, […]; for ABSOLUTE BASOPHIL / BASOPHIL / NUCLEATED RED BLOOD CELLS / ABSOLUTE EOSINOPHIL / ABSOLUTE LYMPHOCYTE / ABSOLUTE MONOCYTE / ABSOLUTE SEGMENTED NEUTROPHIL / EOSINOPHIL / ERYTHROCYTE COUNT / HEMATOCRIT / HEMOGLOBIN / LEUKOCYTE COUNT / LYMPHOCYTE / MEAN CORPUSCULAR HEMOGLOBIN / MEAN CORPUSCULAR HEMOGLOBIN CONCENTRATION / MEAN CORPUSCULAR VOLUME / MONOCYTE / NEUTROPHIL / PLATELET COUNT: tissue Blood
[1] = 0 mg/kg, 72 h, dose level Control, time 3 day
[2] = 0 mg/kg, 120 h, dose level Control, time 5 day
[3] = 52 mg/kg, 72 h, dose level Low, time 3 day
[4] = 52 mg/kg, 72 h, tissue Plasma, dose level Low, time 3 day
[5] = 52 mg/kg, 120 h, dose level Low, time 5 day
[6] = 52 mg/kg, 120 h, tissue Plasma, dose level Low, time 5 day

SMILES: Clc1ccccc1C(c1ccccc1)(c1ccccc1)n1ccnc1 [CLOTRIMAZOLE]
- ABSOLUTE BASOPHIL [1]: 0 CELLS/uL
- BASOPHIL [1]: 0%
- NUCLEATED RED BLOOD CELLS [1]: 0 /100WBC
- ABSOLUTE BASOPHIL [2]: 0 CELLS/uL
- BASOPHIL [2]: 0%
- ABSOLUTE BASOPHIL [3]: 0 CELLS/uL
- ABSOLUTE EOSINOPHIL [3]: 0 CELLS/uL
- ABSOLUTE LYMPHOCYTE [3]: 7378.33 CELLS/uL
- ABSOLUTE MONOCYTE [3]: 76.67 CELLS/uL
- ABSOLUTE SEGMENTED NEUTROPHIL [3]: 611.67 CELLS/uL
- BASOPHIL [3]: 0%
- EOSINOPHIL [3]: 0%
- ERYTHROCYTE COUNT [3]: 4.96 x10E6/uL
- HEMATOCRIT [3]: 32.7%
- HEMOGLOBIN [3]: 12.97 G/DL
- LEUKOCYTE COUNT [3]: 8.07 x10E3/uL
- LYMPHOCYTE [3]: 91.33%
- MEAN CORPUSCULAR HEMOGLOBIN [3]: 26.17 pg
- MEAN CORPUSCULAR HEMOGLOBIN CONCENTRATION [3]: 39.67 G/DL
- MEAN CORPUSCULAR VOLUME [3]: 65.97 fL
- MONOCYTE [3]: 1%
- NEUTROPHIL [3]: 7.67%
- NUCLEATED RED BLOOD CELLS [3]: 0 /100WBC
- PLATELET COUNT [3]: 996.33 x10E3/uL
- ALANINE AMINOTRANSFERASE [4]: 116 u/L
- ALBUMIN [4]: 3.73 G/DL
- ALKALINE PHOSPHATASE [4]: 475.33 u/L
- ASPARTATE AMINOTRANSFERASE [4]: 102.67 u/L
- BLOOD UREA NITROGEN [4]: 13.33 mg/dL
- CARBON DIOXIDE [4]: 38 mmol/L
- CHLORIDE [4]: 99 MEQ/L
- CHOLESTEROL [4]: 69.33 mg/dL
- CREATINE PHOSPHOKINASE [4]: 256 u/L
- CREATININE [4]: 0.12 mg/dL
- GLUCOSE [4]: 158 mg/dL
- LACTATE DEHYDROGENASE [4]: 99 u/L
- LIPASE [4]: 11 u/L
- PHOSPHORUS [4]: 9.1 mg/dL
- POTASSIUM [4]: 5.46 MEQ/L
- SODIUM [4]: 142.67 MEQ/L
- TOTAL BILIRUBIN [4]: 0.17 mg/dL
- TOTAL PROTEIN [4]: 5.43 G/DL
- URIC ACID [4]: 0.57 mg/dL
- ABSOLUTE BASOPHIL [5]: 0 CELLS/uL
- ABSOLUTE EOSINOPHIL [5]: 0 CELLS/uL
- ABSOLUTE LYMPHOCYTE [5]: 8088.33 CELLS/uL
- ABSOLUTE MONOCYTE [5]: 127.33 CELLS/uL
- ABSOLUTE SEGMENTED NEUTROPHIL [5]: 651 CELLS/uL
- BASOPHIL [5]: 0%
- EOSINOPHIL [5]: 0%
- ERYTHROCYTE COUNT [5]: 5.31 x10E6/uL
- HEMATOCRIT [5]: 34.07%
- HEMOGLOBIN [5]: 13.3 G/DL
- LEUKOCYTE COUNT [5]: 8.87 x10E3/uL
- LYMPHOCYTE [5]: 91.67%
- MEAN CORPUSCULAR HEMOGLOBIN [5]: 25.1 pg
- MEAN CORPUSCULAR HEMOGLOBIN CONCENTRATION [5]: 39.1 G/DL
- MEAN CORPUSCULAR VOLUME [5]: 64.2 fL
- MONOCYTE [5]: 1.33%
- NEUTROPHIL [5]: 7%
- NUCLEATED RED BLOOD CELLS [5]: 0 /100WBC
- PLATELET COUNT [5]: 1063.67 x10E3/uL
- ALANINE AMINOTRANSFERASE [6]: 68 u/L
- ALBUMIN [6]: 3.9 G/DL
- ALKALINE PHOSPHATASE [6]: 421.33 u/L
- ASPARTATE AMINOTRANSFERASE [6]: 83.33 u/L
- BLOOD UREA NITROGEN [6]: 13.33 mg/dL
- CARBON DIOXIDE [6]: 27.33 mmol/L
- CHLORIDE [6]: 104.33 MEQ/L
- CHOLESTEROL [6]: 79.67 mg/dL
- CREATINE PHOSPHOKINASE [6]: 203.67 u/L
- CREATININE [6]: 0.34 mg/dL
- GLUCOSE [6]: 183 mg/dL
- LACTATE DEHYDROGENASE [6]: 97.67 u/L
- LIPASE [6]: 12.67 u/L
- PHOSPHORUS [6]: 12.3 mg/dL
- POTASSIUM [6]: 5.8 MEQ/L
- SODIUM [6]: 144.6 MEQ/L

From ChEMBL document CHEMBL3885881, “DrugMatrix”
